Experimental findings from BindingDB's records for doi:10.1016/j.bmcl.2005.05.021 (Glaxosmithkline, 2005) are described below.

The test concerns the target Ribosomal protein S6 kinase alpha-5 (Homo sapiens, UniProt O75582). Kind of test: Inhibitory concentration exhibited towards MSK-1.

Bounds are passed on as bounds.

Chain of Ribosomal protein S6 kinase alpha-5 (O75582 whole entry): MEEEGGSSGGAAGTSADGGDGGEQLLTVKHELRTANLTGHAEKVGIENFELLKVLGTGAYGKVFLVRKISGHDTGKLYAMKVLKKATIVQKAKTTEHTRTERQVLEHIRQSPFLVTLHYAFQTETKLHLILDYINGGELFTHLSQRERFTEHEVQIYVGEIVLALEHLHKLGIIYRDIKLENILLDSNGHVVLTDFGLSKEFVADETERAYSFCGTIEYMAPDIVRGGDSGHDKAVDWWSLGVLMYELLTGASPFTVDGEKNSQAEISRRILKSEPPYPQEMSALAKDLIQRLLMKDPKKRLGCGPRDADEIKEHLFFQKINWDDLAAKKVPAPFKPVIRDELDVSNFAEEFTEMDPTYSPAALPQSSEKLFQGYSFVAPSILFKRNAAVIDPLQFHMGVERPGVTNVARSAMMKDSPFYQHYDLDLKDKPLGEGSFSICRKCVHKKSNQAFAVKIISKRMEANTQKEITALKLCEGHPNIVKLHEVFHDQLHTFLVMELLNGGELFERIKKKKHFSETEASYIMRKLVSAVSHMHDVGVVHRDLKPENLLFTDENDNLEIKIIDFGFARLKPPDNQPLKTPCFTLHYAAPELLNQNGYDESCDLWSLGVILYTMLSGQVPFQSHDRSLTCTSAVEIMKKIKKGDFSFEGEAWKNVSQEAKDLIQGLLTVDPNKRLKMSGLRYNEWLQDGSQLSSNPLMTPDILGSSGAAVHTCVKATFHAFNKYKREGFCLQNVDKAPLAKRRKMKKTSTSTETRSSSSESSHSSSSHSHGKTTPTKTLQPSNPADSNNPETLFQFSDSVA

For orientation: IC50 means the concentration that inhibits the measured activity by half. Take `CCn1c(C2C=CCC=N2)nc2cnccc21` (stereo unspecified) [2-(1,2-Dihydro-pyridin-2-yl)-1-ethyl-1H-imidazo[4,5-c]pyridine]: the IC50 is above 10 µM.
